Measured values taken from patent publication US12466821B2 (Novartis AG, priority 2018, dated 2025).
Like-named read-outs stand apart in the source and are kept apart here.

Columns and labels:
[1] = test system: Luciferase-encoding HCMV, AD169 strain; experiment: CMV Luciferase assay (cellular herpesvirus replication); assay type: cell-based
In short: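 Reporter HCMV AD169 with luciferase driven by late pp28 promoter, so signal requires viral DNA replication; NN-NHDF fibroblasts in 2% FBS medium, compound (0.0159–50 or 0.00318–10 μM, 0.5% DMSO) added 1 h before infection at MOI 1. Luminescence read 72 hpi; EC50 from 4-parameter fit of control-normalized %.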

[2] = biological target: human HSV DNA polymerase UL30 (Human herpesvirus 1 (strain 17) (HHV-1) (Human herpes simplex virus 1), UniProt P04293); experiment: HSV polymerase biochemical assay (molecular beacon-based)
In short: (§1)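 Full-length wild-type N-terminal MBP-fusion polymerases from sf9 cells were used at 100 pM (CMV) or 625 pM (HSV) in Tris pH 7.5, 10 mM MgCl2, and preincubated with inhibitor for 30 min at RT. Reactions with 1.25 uM each dNTP, 200 nM primer and 100 nM molecular beacon ran 60 min (CMV) or 20 min (HSV) at RT. Fluorescence was read at 480/535 nm and IC50 derived.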

[3] = biological target: human CMV DNA polymerase UL54 (Human cytomegalovirus (strain AD169) (HHV-5) (Human herpesvirus 5), UniProt P08546); experiment: CMV polymerase biochemical assay (molecular beacon-based)
In short: as §1

[4] = Human betaherpesvirus 5, AD169, read-out: CMV-Luc Cellular EC50

| SMILES | EC50 [1, 4] [nM] | IC50 [2] [nM] | IC50 [3] [nM] | EC50 ([1]; read-out: CMV-Luc Cellular EC50) [nM] |
| --- | --- | --- | --- | --- |
| CCS(=O)(=O)C1(CN2CCn3c(ccc(C(=O)NCc4ccc(C#N)cc4)c3=O)C2=O)CC1 [Example 35] | 54.4 | 68.9 | 2.6 |  |
| CCS(=O)(=O)C1(CN2CCn3c(ccc(C(=O)NCc4ccc(Cl)cc4)c3=O)C2=O)CC1 [Example 36] | 24.9 | 42.3 | 0.7 |  |
| CS(=O)(=O)C1(CN2CCn3c(ccc(C(=O)NCc4ccc(Br)cc4)c3=O)C2=O)CC1 [Example 37] | 62.3 | 111 | 1.3 |  |
| CS(=O)(=O)C1(CN2CCn3c(ccc(C(=O)NCc4ccc(C#N)cc4F)c3=O)C2=O)CC1 [Example 38] | 868 | 630 | 12 |  |
| CS(=O)(=O)C1(CN2CCn3c(ccc(C(=O)NCc4ccc(C#N)c(F)c4)c3=O)C2=O)CC1 [Example 39] | 102 | 105 | 3.5 |  |
| CS(=O)(=O)C1(CN2CCn3c(ccc(C(=O)NCc4ncc(Cl)cn4)c3=O)C2=O)CC1 [Example 40] | 10000 | 28300 | 480 |  |
| CS(=O)(=O)C1(CN2CCn3c(ccc(C(=O)NCc4ccc(Cl)c(F)c4)c3=O)C2=O)CC1 [Example 41] | 42.9 | 123 | 2.8 |  |
| CS(=O)(=O)C1(CN2CCn3c(ccc(C(=O)NCC4CCC5(CC4)CC5)c3=O)C2=O)CC1 [Example 42] | 7490 | 12800 | 43.2 |  |
| CS(=O)(=O)C1(CN2CCn3c(ccc(C(=O)NCC4CCC(F)(F)CC4)c3=O)C2=O)CC1 [Example 43] | 6420 | 7860 | 62.5 |  |
| C[C@H](NC(=O)c1ccc2n(c1=O)CCN(CC1(S(C)(=O)=O)CC1)C2=O)c1ccc(Cl)cc1 [Example 44] | 10000 | 62900 | 763 |  |
| C[C@@H](NC(=O)c1ccc2n(c1=O)CCN(CC1(S(C)(=O)=O)CC1)C2=O)c1ccc(Cl)cc1 [Example 45] | 10000 | 130000 | 458 |  |
| CS(=O)(=O)C1(CN2CCn3c(ccc(C(=O)NCc4ccc(C#N)cc4)c3=O)C2=O)CC1 [Example 46] | 229 | 127 | 6 |  |
| CS(=O)(=O)C1(CN2CCn3c(ccc(C(=O)NCc4ccc(F)cc4)c3=O)C2=O)CC1 [Example 47] | 783 | 393 | 20 |  |
| CS(=O)(=O)C1(CN2CCn3c(ccc(C(=O)NCc4ccc(Cl)cc4)c3=O)C2=O)CC1 [Example 48] | 33.3 | 51.3 | 3 |  |
| CS(=O)(=O)C1(CN2CCn3c(ccc(C(=O)NCc4ccc(Cl)cc4)c3=O)C2=O)CCC1 [Example 49] |  | 2520 | 41.8 | 2800 |
| O=C(NCc1ccc(Cl)cc1)c1ccc2n(c1=O)CCN(CCC1CCCS1(=O)=O)C2=O (stereo not drawn) [Example 50-1, N-(4-chlorobenzyl)-2-(2-(1,1-dioxidotetrahydrothiophen-2-yl)ethyl)-1,6-dioxo-2,3,4,6-tetrahydro-1H-pyrido[1,2-a]pyrazine-7-carboxamide] | 306 | 188 | 35.6 |  |
| O=C(NCc1ccc(Cl)nc1)c1ccc2n(c1=O)CCN(CC1(S(=O)(=O)C3(CO)CC3)CC1)C2=O [Example 50-2] | 122 | 72.8 | 6.4 |  |
| CS(=O)(=O)CCCN1CCn2c(ccc(C(=O)NCc3ccc(Cl)cc3)c2=O)C1=O [Example 52] | 2950 | 791 | 163 |  |

| SMILES | EC50 [1, 4] [nM] | IC50 [2] [nM] | IC50 [3] [nM] | EC50 ([1]; read-out: CMV-Luc Cellular EC50) [nM] |
| --- | --- | --- | --- | --- |
| O=C(NCc1ccc(Cl)cc1)c1ccc2n(c1=O)CCN(C1CCS(=O)(=O)C1)C2=O (stereo not drawn) [Example 53-1] | 11200 | 4440 | 729 |  |
| CCS(=O)(=O)CCN1CCn2c(ccc(C(=O)NCc3ccc(Cl)cc3)c2=O)C1=O [Example 53] | 1460 | 365 | 149 |  |
| CN(CCN1CCn2c(ccc(C(=O)NCc3ccc(Cl)cc3)c2=O)C1=O)C(=O)OC(C)(C)C [Example 54, tert-butyl (2-(7-((4-chlorobenzyl)carbamoyl)-1,6-dioxo-3,4-dihydro-1H-pyrido[1,2-a]pyrazin-2(6H)-yl)ethyl)(methyl)carbamate] | 4340 | 1930 | 292 |  |
| COCCN1CCn2c(ccc(C(=O)NCc3ccc(Cl)cc3)c2=O)C1=O [Example 55] | 6710 | 11500 | 708 |  |
| O=C(NCc1ccc(Cl)cc1)c1ccc2n(c1=O)CCN(CCN1CCCC1=O)C2=O [Example 56] | 3830 | 4760 | 312 |  |
| CC1(CN2CCn3c(ccc(C(=O)NCc4ccc(Cl)cc4)c3=O)C2=O)COC1 [Example 57-1] | 29200 | 31300 | 2660 |  |
| O=C(NCc1ccc(Cl)cc1)c1ccc2n(c1=O)CCN(CCN1CCCCC1=O)C2=O [Example 57] | 7260 | 6130 | 374 |  |
| CN(CCN1CCn2c(ccc(C(=O)NCc3ccc(Cl)cc3)c2=O)C1=O)S(C)(=O)=O [Example 58, N-(4-chlorobenzyl)-2-(2-(N-methylmethylsulfonamido)ethyl)-1,6-dioxo-2,3,4,6-tetrahydro-1H-pyrido[1,2-a]pyrazine-7-carboxamide] | 883 | 846 | 75.6 |  |
| CCS(=O)(=O)N(C)CCN1CCn2c(ccc(C(=O)NCc3ccc(Cl)cc3)c2=O)C1=O [Example 59] | 1640 | 1480 | 138 |  |
| CN(CCN1CCn2c(ccc(C(=O)NCc3ccc(Cl)cc3)c2=O)C1=O)S(=O)(=O)C1CC1 [Example 60] | 1250 | 888 | 124 |  |
| COC(=O)N(C)CCN1CCn2c(ccc(C(=O)NCc3ccc(Cl)cc3)c2=O)C1=O [Example 61-1] | 5000 | 10800 | 740 |  |
| CC(=O)N(C)CCN1CCn2c(ccc(C(=O)NCc3ccc(Cl)cc3)c2=O)C1=O [Example 61] | 6340 | 5560 | 364 |  |
| CS(=O)(=O)NCCN1CCn2c(ccc(C(=O)NCc3ccc(Cl)cc3)c2=O)C1=O [Example 62, N-(4-chlorobenzyl)-2-(2-(methylsulfonamido)ethyl)-1,6-dioxo-2,3,4,6-tetrahydro-1H-pyrido[1,2-a]pyrazine-7-carboxamide] | 19900 | 4300 | 657 |  |
| CS(=O)(=O)N1CCC[C@H]1CN1CCn2c(ccc(C(=O)NCc3ccc(Cl)cc3)c2=O)C1=O [Example 63-1] | 42700 | 23400 | 1400 |  |
| CS(=O)(=O)N1CCC[C@@H]1CN1CCn2c(ccc(C(=O)NCc3ccc(Cl)cc3)c2=O)C1=O [Example 63] | 12300 | 19800 | 420 |  |
| O=C(NCc1ccc(Cl)cc1)c1ccc2n(c1=O)CCN(CCN1CCCS1(=O)=O)C2=O [Example 64, N-(4-chlorobenzyl)-2-(2-(1,1-dioxidoisothiazolidin-2-yl)ethyl)-1,6-dioxo-2,3,4,6-tetrahydro-1H-pyrido[1,2-a]pyrazine-7-carboxamide] | 96.1 | 181 | 33.6 |  |
| CS(=O)(=O)N1CC(CN2CCn3c(ccc(C(=O)NCc4ccc(Cl)cc4)c3=O)C2=O)C1 [Example 65] | 15100 | 11500 | 614 |  |
